{"source": "patent US6566047B1", "about": "“Method for identifying neurite-growth promoting agents” (The Regents of the University of Colorado, priority 1998, dated 2003)", "key": {"MAT-Lu cells": {"system": "MAT-Lu cells", "assay": "Boyden chamber motility assay, MAT-Lu cells", "format": "cell-based, rat", "conditions": "for Mat-Lu cells crossing filter in % of control +/− SEM: 4 hr, thrombin 200 nM, CDC 126 nM", "experimental": "Boyden Chamber Motility Assays. Disposable transwells (Coming Costar, Cambridge, Mass.) of 6.5 mm diameter and 8 μm pore size were coated with 5 μg/ml laminin on both sides. The membranes were washed twice with Hank's balanced salt solution (HBSS) and then pre-incubated with growth medium containing 10% fetal bovine serum. Trypsinized cells (5×10^4) were plated into the upper well. After 1 hour the upper chamber was washed twice with HBSS, filled with serum-free medium and moved to a new lower chamber, also filled with serum-free medium, with or without thrombin and/or 0.75 nM insulin-like growth factor-1 (IGF-1). After incubation for 4 hrs, cells on the membrane were fixed and stained with a Diff-Quick kit (Baxter Scientific Products). Cells on the upper side were scraped off, the membranes were removed, mounted onto microscope slides and analyzed. Each filter was scanned twice at right angles under the light microscope with a 16×phase contrast objective lens. A continuous series of 20 frames for each filter was digitized using a high-resolution CCD camera (Kodak) and stored in a Power Macintosh computer. The two most peripheral pairs of frames from each scan were deleted so that 12 frames were analyzed for each filter. Cells that had crossed the membrane were counted and tabulated. The sum of the cells counted in the twelve frames was an individual data point."}, "cPLA2 [1]": {"system": "cPLA2", "assay": "PLA2 activity (14C-AA release) in MAT-Lu cells", "format": "biochemical, rat", "conditions": "thrombin 200 nM", "description": "MAT-Lu cells were plated at a density of 0.5×10^6 cells per flask (T-75) and grown as detailed above to approximately 25% confluency. On the day before the experiments, the serum level in the medium was dropped to 1%. Cells were fed with fresh 1% serum-medium 4 hrs prior to harvest. For harvesting, cells were rinsed with Ca^++,Mg^++-free HBSS, covered with 2 ml cold Ca^++-free modified Krebs buffer (220 mM sucrose, 50 mM NaCl, 5 mM KCl, 22 mM HEPES, 10 mM glucose. 1.2 mM NaH2PO4 and 1.2 mM MgCl2, pH 7.3), and placed on ice. Cells were scraped off, pelleted for 5 min at 200 rpm and re-suspended in a minimal volume of Krebs buffer. Aliquots were used to determine protein concentration (Biorad Assay) and phopholipase activity. To measure PLA2 activity 10-12 μg of cell protein was incubated with or without thrombin for 10 min on ice, ^14C-AA-labeled phospholipid substrate (7 μM. 40-60 mCi/mmol) was added, and the mixture was transferred to 37° for 20 min. The reaction was stopped by adding cold cliloroform/methanol (1:2 v/v). Lipid extraction followed by thin-layer chromatography (Negre-Aminou et al., J Neurochem 67:2599-2608 (1996)) isolated the reaction product (identified by co-migration with AA standard), which was then scraped off the plates and analyzed in a scintillation spectrometer (Beckman). In some experiments, especially those involving ^14C-AA-phosphatidylinositol as substrate, the diacylglycerol-containing band (identified by co-migration of standard) also was scraped and counted in order to measure phospholipase C (PLC) activity."}, "cPLA2 [2]": {"system": "cPLA2", "assay": "cPLA2 activity in PC-3M-MM2 cells", "format": "biochemical, human", "experimental": "PLA2 stimulation. Using ^14C-AA-PE, -PC or -PI as a substrate, thrombin, SemaIV and netrin activation of the enzyme are measured. For these assays, commercially available thrombin or thrombin-receptor-activating peptide (TRAP) (Sigma, St. Louis, Mo.), recombinant SemaIV provided to us by Dr. H. Drabkin, University of Colorado School of Medicine, recombinant SemaIII provided by Dr. Y. Luo, Exelixis Pharmaceuticals, San Francisco Calif., and recombinant netrin from Dr. M. Tessier-Lavigne, (University of California, San Francisco) are used. Time courses and dose-response curves are generated with the appropriate substrate(s). These assays are carried out according to well-established protocols described in Negre-Aminou et al., 1996, supra, incorporated herein by reference, on cells grown to equal density levels (as determined by protein and DNA content). Some enzyme assays are carried out in the presence of reducing agent, which blocks secreted but not cytosolic PLA2 activity, to exclude potential interference by secreted PLA2. To characterize the stimulated cPLA2 further, cultured cells are homogenized in protease inhibitor-containing buffer, in the presence of 1 mM EDTA or 0.3 mM Ca^2+, and then centrifuged in order to generate crude membrane fractions and cytosolic extracts. […] In separate experiments, enzyme activity is measured in the presence of different concentrations of free calcium to determine whether the enzyme activity is calcium-dependent or not"}, "PC-3M-MM2 cells": {"system": "PC-3M-MM2 cells", "assay": "Boyden chamber assay, PC-3M-MM2 cells", "format": "cell-based, human", "experimental": "In addition, seven human prostate carcinoma cell lines were used (see Table 2). One or two cell lines of medium to high motility (e.g., PC-3M-MM2 and DU145) are first selected. The PC-3M-MM2 cells disperse rapidly in the dish and, like the MAT-Lu cells, never form colonies. Cells are grown according to standard procedures. Large numbers of aliquots of all cancer cell lines arc collected and frozen in order to avoid the use of higher passage numbers in later experiments. As the experimentation progresses, the motility and morphology of the cells is re-checked to avoid distortion of results by changes in phenotype. For experimental use, cells are kept well below confluence. In order to test for potential effects of the growth matrix, cells are grown for selected experiments not only on serum-conditioned tissue culture plastic but also on laminin, collagen, fibronectin or Matrigel (Life Technologies/GIBCO-BRL, Gaitheresberg, Md.; Becton Dickinson/Collaborative Biomedical Products, Bedford Mass.). […] The motility, of all cells is assessed quantitatively using the (long-term) Boyden chamber assay as described in Boyden, J. Exp. Med. 115:453-466 (1962), incorporated herein by reference. […] The relative number of cells moving within 3-6 hours across the membrane from the upper well is counted in the presence or absence of IGF-1 in the lower chamber."}, "growth cone PLC": {"system": "growth cone PLC", "assay": "Phospholipase C assay (DG release) in GCPs", "format": "biochemical, rat", "conditions": "GCPs; thrombin 100 nM; calcium-dependent", "from_the_text": "All assays were run in triplicate."}, "GCPs plated on laminin": {"system": "GCPs plated on laminin", "assay": "GCP release (detachment) assay on laminin", "parameters": "species or system rat", "experimental": "GCP Release Assay. Petri dishes (35 mm diameter) were coated with 10 μg mouse laminin in PBS by incubation at room temperature for 60 min with shaking. Dishes were subsequently rinsed three times with PBS to remove unbound laminin and then blocked with 5% non-fat dry milk (Carnation) in PBS for 30 min. After three PBS rinses to remove blocking agent, the dishes were ready for the addition of GCPs. […] After incubation for five min at 37° C. this buffered GCP preparation was added to the laminincoated petri dishes. Contact with the substratum was facilitated by centrifuging the dishes for 15 min at 5000 g (Beckman JS5.2 rotor) at room temperature, followed by incubation at 37° C. to allow adhesion site formation. After 10 min, unattached GCPs were removed by rinsing the dishes twice with 1× modified Krebs buffer. Plated GCPs were then challenged with repellent factor (TRAP or thrombin) for 20 min at 37° C. The supernatant containing released GCPs was collected and centrifuged for protein determination of the pellet. GCPs that remained attached after repellent treatment were removed with 5% sodium dodecyl sulfate (SDS) for protein assay. Protein was measured according to Lowry et al. (1951) as modified by Peterson (1983). Results of these experiments were expressed as the percentage of released versus total GCP protein in the assay."}, "protein kinase C (PKC)": {"system": "protein kinase C (PKC)", "assay": "MARCKS phosphorylation by PKC in isolated GCPs", "format": "biochemical, rat", "conditions": "isolated growth cones", "from_the_text": "FIG. 7A. Thrombin stimulates MARCKS phosphorylation in a 12-LOX-dependent manner. FIG. 7B. 12(S)-HETE stimulates MARCKS phosphorylation by PKC in isolated GCPs. […] Polypeptides were resolved by SDS-PAGE. MARCKS phosphorylation was quantified by phosphorimaging."}, "PLA2": {"system": "PLA2", "conditions": "Table 3a, 100 nM", "description": "Phospholipase Assays. For PLA2 assays, GCPs suspended in modified Ca^2+-free Krebs buffer (10-30 μg protein/assay) were first incubated for 10 min on ice in the presence or absence of effectors. Subsequently, phospholipid substrate (PC, PE or PI) containing radiolabelled AA (7 μM; 50,000 cpm/assay) was added and the reaction carried out at 37° C. for 10 minutes. Typically, assay mixtures contained 10 μM CaCl2; specific modifications are described in the figure legends. For phospholipase C (PLC) assays, conditions were the same when run in parallel with PLA2 assays. When PLC assays were run independently, Ca^2+ was increased to 1 mM. Reactions were terminated by the addition of 3.75 volumes of cold chloroform/methanol (1:2). PLA2 assays also were performed on neurons dissociated from fetal rat cerebral cortex. The assay conditions were the same as those just described for GCPs.\nProducts recovered in chloroform were loaded onto silica gel 60 TLC plates and developed as described earlier (Nègre-Aminou and Pfenninger, 1993) in hexane/ether/acetic acid (40:60:1). AA and DG were identified on TLC by co-migration with authentic standards. The appropriate bands were excised into scintillation fluid and counted on a Beckman LS 1801 scintillation sprectrometer. All assays were run in triplicate."}}, "note": "Where two headings read alike, the source gives them in different places."}
{"substance": "thrombin: potent growth cone repellent; commercially available thrombin (Sigma); rat thrombin in Boyden assays", "values": [{"measurement": "effect on cell migration across the membrane", "setting": "MAT-Lu cells; 200 nM in lower well, 4 hrs, serum-free medium", "result": "almost completely suppresses cell migration across the membrane"}, {"measurement": "Mat-Lu cells crossing filter in % of control +/− SEM", "setting": "MAT-Lu cells; Control column (no IGF-1)", "result": "30.9 +/− 5.7 % of control"}, {"measurement": "Mat-Lu cells crossing filter in % of control +/− SEM", "setting": "MAT-Lu cells; IGF-1 (0.75 nM)", "result": "38 +/− 9.2 % of control"}, {"measurement": "decrease in control and IGF-1-induced migration across the membrane", "setting": "MAT-Lu cells; at 200 nM", "result": "70-80%"}, {"measurement": "increase of PLA2 activity (AA release), PE substrate", "setting": "cPLA2 [1]", "result": "40-50 fold"}, {"measurement": "stimulation of AA release from PC", "setting": "cPLA2 [2]", "result": "about 4 fold"}, {"measurement": "stimulation of AA release from PE", "setting": "cPLA2 [2]", "result": "about 4 fold"}, {"measurement": "stimulation of PI hydrolysis", "setting": "cPLA2 [2]", "result": "not further stimulated by thrombin"}, {"measurement": "effect on cell motility", "setting": "PC-3M-MM2 cells", "result": "potent inhibitor of cell motility"}, {"measurement": "effect on DG release from PI", "setting": "growth cone PLC", "result": "inhibits DG release, rather than stimulating it"}, {"measurement": "effect on GCP detachment from laminin", "setting": "GCPs plated on laminin; 20 min at 37° C., cytochalasin D 1 μM", "result": "detached from the substratum in a dose-dependent maaner"}, {"measurement": "growth cones detached from laminin", "setting": "GCPs plated on laminin; same thrombin concentrations as cPLA2 assays, in presence of calcium, controls 17%", "result": "about 46%"}, {"measurement": "stimulation of MARCKS and GAP43 phosphorylation", "setting": "protein kinase C (PKC)", "result": "stimulates MARCKS and GAP43 phosphorylation"}, {"measurement": "net activity (pmol/min/mg protein), intact neurons", "setting": "PLA2; substrate PE", "result": "26.8 ± 1.9", "unit": "pmol/min/mg protein"}, {"measurement": "net activity (pmol/min/mg protein), intact neurons", "setting": "PLA2; substrate PI", "result": "42.5 ± 16", "unit": "pmol/min/mg protein"}]}
